Measured values from US20080261994A1, “CYCLOPROPANE COMPOUNDS AND PHARMACEUTICAL USE THEREOF” (Japan Tobacco Inc., priority 2003, published 2008).
Where two headings read alike, the source gives them in different places.

Key:
Type in all cases: biochemical
[1] = molecular target: T1, aggrecanase-1 (Homo sapiens, UniProt O75173); assay: Aggrecanase-1 inhibitory action (Particle Assay, GAG release from aggrecan-containing polyacrylamide particles)
T1 sequence (O75173 213-837): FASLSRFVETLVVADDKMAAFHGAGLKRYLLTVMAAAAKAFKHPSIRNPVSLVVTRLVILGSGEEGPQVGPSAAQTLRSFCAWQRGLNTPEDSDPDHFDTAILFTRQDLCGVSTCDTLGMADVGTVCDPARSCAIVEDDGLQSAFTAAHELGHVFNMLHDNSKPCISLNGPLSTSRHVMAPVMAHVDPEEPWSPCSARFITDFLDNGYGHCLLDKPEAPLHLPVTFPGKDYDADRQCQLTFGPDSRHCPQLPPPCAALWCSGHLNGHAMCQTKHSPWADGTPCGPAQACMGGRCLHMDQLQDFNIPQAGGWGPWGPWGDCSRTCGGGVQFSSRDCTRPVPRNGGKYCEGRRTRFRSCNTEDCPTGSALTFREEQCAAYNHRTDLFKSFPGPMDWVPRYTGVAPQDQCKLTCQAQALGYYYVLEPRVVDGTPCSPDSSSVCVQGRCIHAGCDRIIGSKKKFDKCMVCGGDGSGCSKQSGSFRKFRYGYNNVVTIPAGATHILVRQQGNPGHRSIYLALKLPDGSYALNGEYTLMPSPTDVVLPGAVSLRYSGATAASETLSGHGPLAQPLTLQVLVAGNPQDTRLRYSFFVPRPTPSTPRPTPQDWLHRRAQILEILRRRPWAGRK
Summary of the method: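 Enzyme and compound incubated with aggrecan-containing polyacrylamide particles in Tris-HCl buffer at 37° C for 15 h. Released GAG in supernatant measured with 1,9-dimethylmethylene blue at 595 nm against chondroitin sulfate standard; % inhibition from enzyme-free and inhibitor-free wells, reported as TC50 (μM).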

[2] = molecular target: T2, MMP-1 (Homo sapiens, UniProt P03956); assay: MMP-1 inhibitory action (Type I collagen Activity Measurement kit, FITC-labeled collagen type I)
T2 sequence (P03956 100-469): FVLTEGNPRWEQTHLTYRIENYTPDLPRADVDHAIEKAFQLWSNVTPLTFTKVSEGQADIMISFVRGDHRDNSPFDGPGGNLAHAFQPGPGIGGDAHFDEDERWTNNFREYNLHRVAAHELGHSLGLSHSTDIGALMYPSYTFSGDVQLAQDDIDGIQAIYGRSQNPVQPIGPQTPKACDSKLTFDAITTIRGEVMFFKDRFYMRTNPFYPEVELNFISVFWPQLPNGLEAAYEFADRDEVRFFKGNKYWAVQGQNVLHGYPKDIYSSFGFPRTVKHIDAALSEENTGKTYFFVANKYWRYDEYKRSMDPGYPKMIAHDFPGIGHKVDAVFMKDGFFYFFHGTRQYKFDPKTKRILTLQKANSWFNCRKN

[3] = molecular target: T3, Recombinant Human MMP-13 (Homo sapiens, UniProt P45452); assay: MMP-13 inhibitory activity (MMP-13 specific fluorescent substrate with quencher)
T3 construct: purchased R&D systems 511-MM
Summary of the method: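 Recombinant human MMP-13 with test compound, reaction started with quenched fluorogenic peptide 7-MCA-Pro-CHA-Gly-NVal-His-Ala-DPA in Tris-HCl buffer, 1 h at 25 °C, stopped with acetic acid. Fluorescence at Ex 325/Em 405 nm; % inhibition versus enzyme-free and inhibitor-free wells, reported as IC50 (μM).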

[4] = aggrecanase-1 inhibitory action, read-out: IC50 AG1 (Experimental Example 1)
[5] = MMP-1 inhibitory action, FITC-labeled collagen type I, 37° C. for 3 hr, read-out: IC50 MMP1 (Experimental Example 2)
[6] = Recombinant Human MMP-13, fluorescent substrate, 25° C. for 1 h, read-out: IC50 MMP13 (Experimental Example 3)
[7] = Experimental Example 1, read-out: IC50 AG1
[8] = Experimental Example 2, read-out: IC50 MMP1
[9] = Experimental Example 3, read-out: IC50 MMP13

Row | Compound | IC50 [1, 4] [nM] | IC50 [2, 5] [nM] | IC50 [3, 6] [nM] | IC50 [1, 7] [nM] | IC50 [2, 8] [nM] | IC50 [3, 9] [nM]
1 | Cc1csc(-c2cccc(C3CC3(NS(=O)(=O)c3ccc(-c4ccc(Cl)cc4)s3)C(=O)O)c2)n1 (stereo not drawn) [Example 2-86] | < 100 | ≥ 10000 | < 1000 |  |  | 
2 | O=C(O)[C@]1(NS(=O)(=O)c2ccc(-c3cc(C(F)(F)F)on3)s2)[C@H](CO)[C@@H]1c1ccccc1 (relative stereo) [Example 2-10, (1R*,2R*,3R*)-2-hydroxymethyl-3-phenyl-1-[5-(5-trifluoromethyl-isoxazol-3-yl)-thiophene-2-sulfonylamino]-cyclopropanecarboxylic acid] | < 100 | < 1000 | < 100 |  |  | 
3 | COc1ccc(N2CCN(S(=O)(=O)NC3(C(=O)O)CC3c3ccccc3)CC2)cc1 (stereo not drawn) [Example 2-64] | ≥ 10000 | ≥ 10000 | ≥ 1000 |  |  | 
4 | CC1C(c2ccccc2)C1(NS(=O)(=O)c1ccc(-c2ccc(Cl)cc2)s1)C(=O)O (stereo not drawn) [Example 2-237] | < 100 | ≥ 1000 | < 100 |  |  | 
5 | COc1ccc(-c2ccc(S(=O)(=O)N[C@@]3(C(=O)O)C[C@]3(C)c3ccccc3)s2)cc1Cl [Example 2-595] |  |  |  | ≥ 1000 | ≥ 1000 | < 100
6 | CN1CCN(CCOc2cccc(C3CC3(NS(=O)(=O)c3ccc(-c4ccc(Cl)cc4)s3)C(=O)O)c2)CC1 (stereo not drawn) [Example 2-198] | < 1000 | ≥ 10000 | < 1000 |  |  | 
7 | C=C(Cl)c1cnn(-c2ccc(S(=O)(=O)N[C@@]3(C(=O)O)C(C)[C@@H]3c3ccccc3)s2)c1 (stereo partly drawn) [Example 2-545] |  |  |  | < 100 | < 100 | < 100
8 | CC(=O)c1ccc(S(=O)(=O)NC2(C(=O)O)CC2c2ccccc2)cc1 (stereo not drawn) [Example 2-80] | ≥ 10000 | ≥ 10000 | ≥ 10000 |  |  | 
9 | O=C(O)C1(NS(=O)(=O)c2ccc(S(=O)(=O)c3ccccc3)s2)CC1c1ccccc1 (stereo not drawn) [Example 2-81] | ≥ 10000 | ≥ 10000 | ≥ 10000 |  |  | 
10 | Cc1cc(C2CC2(NS(=O)(=O)c2ccc(-c3cc(C(F)(F)F)on3)s2)C(=O)O)no1 (stereo not drawn) [Example 2-314] |  |  |  | ≥ 1000 | ≥ 10000 | ≥ 10000
11 | O=C(O)C1(NS(=O)(=O)c2ccc(-c3ccc(Cl)cc3)s2)CC1c1cccc(CO)c1 (stereo not drawn) [Example 1-134] | < 100 | ≥ 1000 | < 100 |  |  | 
12 | CC1[C@H](c2ccccc2)[C@]1(NS(=O)(=O)N1CCN(c2ccncc2)CC1)C(=O)O (stereo partly drawn) [Example 2-533] |  |  |  | ≥ 1000 | ≥ 1000 | ≥ 1000
13 | CN1CCN(C(=O)CCc2ccc([C@H]3C[C@@]3(NS(=O)(=O)c3ccc(-c4cc(C(F)(F)F)on4)s3)C(=O)O)cc2)CC1 [Example 2-280] |  |  |  | < 1000 | ≥ 10000 | < 100
14 | CC1[C@H](c2ccccc2)[C@]1(NS(=O)(=O)N1CC=C(c2ccc(Cl)cc2)CC1)C(=O)O (stereo partly drawn) [Example 2-441] |  |  |  | < 100 | ≥ 1000 | < 100
15 | C[C@]1(c2ccccc2)C[C@@]1(NS(=O)(=O)c1ccc(-c2cccc(NS(C)(=O)=O)c2)s1)C(=O)O [Example 2-453] |  |  |  | ≥ 1000 | ≥ 10000 | < 1000
16 | CCC1CC1(NS(=O)(=O)c1ccc(-c2ccc(Cl)cc2)s1)C(=O)O (stereo not drawn) [Example 2-48] | < 1000 | ≥ 10000 | ≥ 1000 |  |  | 
17 | O=C(O)C1(NS(=O)(=O)c2ccc(-c3ccc(Cl)cc3)s2)CC1c1ccc(Br)cc1 (stereo not drawn) [Example 2-203] | < 1000 | ≥ 10000 | < 100 |  |  | 
18 | O=C(Cc1ccccc1C1CC1(NS(=O)(=O)c1ccc(-c2ccc(Cl)cc2)s1)C(=O)O)N1CCOCC1 (stereo not drawn) [Example 2-194] | < 1000 | ≥ 10000 | < 1000 |  |  | 

Row | Compound | IC50 [1, 4] [nM] | IC50 [2, 5] [nM] | IC50 [3, 6] [nM] | IC50 [1, 7] [nM] | IC50 [2, 8] [nM] | IC50 [3, 9] [nM]
19 | NCCc1ccc([C@H]2C[C@@]2(NS(=O)(=O)c2ccc(-c3cc(C(F)(F)F)on3)s2)C(N)=O)cc1 [Example 2-300] |  |  |  | < 1000 | ≥ 1000 | < 100
20 | O=C(O)C1(NS(=O)(=O)c2ccc(-c3cc(C(F)(F)F)on3)s2)CC1(CN1CCCCC1)c1ccccc1 (stereo not drawn) [Example 2-330] |  |  |  | ≥ 1000 | ≥ 10000 | ≥ 1000
21 | O=C(O)C1(NS(=O)(=O)N2CCN(c3ccc(F)cc3)CC2)CC1c1ccccc1 (stereo not drawn) [Example 2-67] | ≥ 10000 | ≥ 10000 | < 1000 |  |  | 
22 | O=C(O)[C@]1(NS(=O)(=O)c2ccc(-c3cc(C(F)F)on3)cc2)C[C@@H]1c1ccccc1 [Example 2-152] | < 1000 | ≥ 10000 | < 100 |  |  | 
23 | CC1[C@@H](c2ccccc2)[C@@]1(NS(=O)(=O)c1ccc(-c2cc(C(F)(F)F)on2)s1)C(=O)O (stereo partly drawn) [Example 2-288] |  |  |  | < 100 | < 1000 | < 100
24 | O=C(O)C1(NS(=O)(=O)c2ccc(-c3cc(C(F)(F)F)on3)s2)CC1c1cc(CCO)on1 (stereo not drawn) [Example 2-315] |  |  |  | < 1000 | ≥ 10000 | < 1000
25 | NCCCC1(c2ccccc2)CC1(NS(=O)(=O)c1ccc(-c2ccc(Cl)cc2)s1)C(=O)O (stereo not drawn) [Example 2-285] |  |  |  | < 1000 | ≥ 1000 | ≥ 1000
26 | O=C(O)C1(NS(=O)(=O)c2cn3cc(-c4ccc(F)cc4)nc3s2)CC1c1ccccc1 (stereo not drawn) [Example 2-491] |  |  |  | ≥ 1000 | ≥ 10000 | < 100
27 | CN1CCN(C(=O)Cc2cccc(C3CC3(NS(=O)(=O)c3ccc(-c4cc(C(F)(F)F)on4)s3)C(=O)O)c2)CC1 (stereo not drawn) [Example 2-221] | < 1000 | ≥ 1000 | < 100 |  |  | 
28 | O=C(Nc1ccc(S(=O)(=O)N[C@@]2(C(=O)O)C[C@@H]2c2ccccc2)cc1)c1ccccc1 [Example 2-473] |  |  |  | ≥ 1000 | ≥ 10000 | ≥ 1000
29 | O=C(O)C1(NS(=O)(=O)c2ccc(-c3ccc(Cl)cc3)cc2)CC1c1cccc(Oc2ccc(Cl)cc2)c1 (stereo not drawn) [Example 1-11] | < 1000 | ≥ 1000 | < 1000 |  |  | 
30 | Cc1cnn(-c2ccc(S(=O)(=O)N[C@@]3(C(=O)O)C[C@@H]3c3ccccc3)s2)c1 [Example 2-241] | < 1000 | ≥ 1000 | < 100 |  |  | 
31 | O=C(O)C1(NS(=O)(=O)N2CC=C(c3ccccc3)CC2)CC1c1ccccc1 (stereo not drawn) [Example 2-148] | ≥ 1000 | ≥ 10000 | < 1000 |  |  | 
32 | O=C(O)Cc1cccc(C2CC2(NS(=O)(=O)c2ccc(-c3cc(C(F)(F)F)on3)s2)C(=O)O)c1 (stereo not drawn) [Example 2-212] | < 100 | ≥ 1000 | < 1000 |  |  | 
33 | CC(C)(C)OC(=O)N1CC=C(c2ccc(S(=O)(=O)N[C@@]3(C(=O)O)C[C@@H]3c3ccccc3)s2)CC1 [Example 2, 4-[5-((1S,2R)-1-carboxy-2-phenyl-cyclopropanesulfamoyl)-thiophene-2-yl]-3,6-dihydro-2H-pyridin-1-carboxylic acid t-butyl ester] | ≥ 1000 | ≥ 10000 | ≥ 10000 |  |  | 
34 | CN1CCN(C(=O)OCC2(c3ccccc3)CC2(NS(=O)(=O)c2ccc(-c3cc(C(F)(F)F)on3)s2)C(=O)O)CC1 (stereo not drawn) [Example 2-334] |  |  |  | < 1000 | ≥ 1000 | < 1000
35 | O=C(O)C1(NS(=O)(=O)c2ccc(-c3ccc(Cl)cn3)s2)CC1c1ccccc1CO (stereo not drawn) [Example 2-63] | < 100 | ≥ 1000 | < 100 |  |  | 
36 | O=C(O)[C@@]1(NS(=O)(=O)c2ccc(-c3cc(C(F)(F)F)on3)s2)C[C@H]1c1ccc(CCO)cc1 [Example 2-301] |  |  |  | < 100 | ≥ 1000 | < 100
